For this test, the target named is T1, human PD-1 / PD-L1-Ig binding on Jurkat cell line over-expressing human PD-1 (Jurkat-PD-1) (Homo sapiens, UniProt Q15116).
T1 construct: expressed in transfected cells; host or cells: Jurkat
Nature of the test: Jurkat-PD-1 Cell Binding High-Content Screening Assay (CBA). To be noted: PE-labeled PD-L1-Ig 20 nM final. In kind it is cell-based. The method, boiled down:
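Jurkat-hPD-1 cells in DMEM with 10% fetal calf serum receive test compound and are held at 37° C for 2 h. PE-labeled PD-L1-Ig is added at 20 nM final and left for 1 hour. Cells are then fixed and Hoechst-stained, and binding is measured by imaging.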

[1] abbreviates: Jurkat-PD-1 cells, read-out: Jurkat HPD1_PDL1 IC50.

The values that follow come from patent publication US20250163104A1, “MACROCYCLIC IMMUNOMODULATORS” (priority 2021, published 2025).

In general, IC50 refers to the concentration needed to halve the response being measured.

SMILES strings stand for the structures. Like-named read-outs stand apart in the source and are kept apart here. Where a SMILES comes first, the peptide text is derived from it. Bridges are numbered along the chain shown (N, C = ends). [ ]: non-standard residue; d: D form. The star is where a group is joined. ξ: configuration not given here. Phe(4-COOH) = N[C@@H](Cc1ccc(C(=O)O)cc1)C(=O)O; Bip = N[C@@H](Cc1ccc(-c2ccccc2)cc1)C(=O)O; Phe(3-Me) = Cc1cccc(C[C@H](N)C(=O)O)c1; Val(3-OH) = CC(C)(O)[C@H](N)C(=O)O; 4Pal = N[C@@H](Cc1ccncc1)C(=O)O; Cha = N[C@@H](CC1CCCCC1)C(=O)O; Cit = NC(=O)NCCC[C@H](N)C(=O)O; Gly(cPr) = N[C@H](C(=O)O)C1CC1; Thr(3ξ) = CC(O)[C@H](N)C(=O)O; Carboxymethyl = O=C(O)C*; Orn = NCCC[C@H](N)C(=O)O; Dab = NCC[C@H](N)C(=O)O; Dap = NC[C@H](N)C(=O)O; Piv = CC(C)(C)C(=O)*; ξA = CC(N)C(=O)O

T1 sequence (Q15116 25-288): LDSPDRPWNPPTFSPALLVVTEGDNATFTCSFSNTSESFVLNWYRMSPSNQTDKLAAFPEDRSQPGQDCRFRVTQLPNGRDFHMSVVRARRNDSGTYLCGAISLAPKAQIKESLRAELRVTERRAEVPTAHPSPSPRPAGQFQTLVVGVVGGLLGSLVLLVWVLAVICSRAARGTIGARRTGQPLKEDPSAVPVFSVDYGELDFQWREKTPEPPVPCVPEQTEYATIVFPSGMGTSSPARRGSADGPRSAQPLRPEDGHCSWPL

`CC(C)C[C@@H]1NC(=O)[C@H](Cc2c[nH]c3ccccc23)NC(=O)[C@H](CC(=O)O)NC(=O)[C@H](Cc2ccc(OCC(=O)O)cc2)NC(=O)[C@H](CN)NC(=O)CSC[C@@H](C(=O)N[C@@H](C)C(N)=O)NC(=O)[C@H]([C@@H](C)O)NC(=O)[C@H](C(C)C)NC(=O)[C@H](CC(C)C)NC(=O)[C@H](CCN)NC(=O)[C@@H](CC(C)C)NC(=O)[C@H](CCCN)NC(=O)[C@H](CCCNC(N)=O)NC(=O)[C@H](Cc2ccc(-c3ccccc3)cc2)NC1=O` [Compound 1304] ({CH2CO}-[Dap]Y(Carboxymethyl)DWL[Bip][Cit][Orn][dL][Dab]LVTCA-NH2; thioether N-14): the 50% inhibitory concentration (IC50) under setting [1] was found to be 26.5 nM.

Regarding `CC(C)C[C@H]1NC(=O)[C@H](CCCN)NC(=O)[C@H](C(C)C)NC(=O)[C@H](Cc2ccc(-c3ccccc3)cc2)NC(=O)[C@H](C2CC2)NC(=O)[C@H](Cc2c[nH]c3ccccc23)NC(=O)[C@H](CC(=O)O)NC(=O)[C@H](Cc2ccc(OCC(=O)O)cc2)NC(=O)[C@H](CN)NC(=O)CSC[C@@H](C(=O)N[C@@H](C)C(N)=O)NC(=O)[C@H]([C@@H](C)O)NC(=O)[C@H](C(C)C)NC(=O)[C@H](CC2CCCCC2)NC(=O)[C@H](CCN)NC1=O` [Compound 1732] ({CH2CO}-[Dap]Y(Carboxymethyl)DW[Gly(cPr)][Bip]V[Orn][dL][Dab][Cha]VTCA-NH2; thioether N-14), the half-inhibitory concentration (IC50) under setting [1] amounted to 18.3 nM.

As for `CC(C)C[C@@H]1NC(=O)[C@H](CCN)NC(=O)[C@@H](CC(C)C)NC(=O)[C@H](CCCN)NC(=O)[C@H](C(C)C)NC(=O)[C@H](Cc2ccc(-c3ccccc3)cc2)NC(=O)[C@H](C(C)C)NC(=O)[C@H](Cc2c[nH]c3ccccc23)NC(=O)[C@H](CC(=O)O)NC(=O)[C@H](Cc2ccc(O)cc2)NC(=O)[C@H](CC(N)=O)NC(=O)CSC[C@@H](C(=O)N[C@@H](C)C(N)=O)NC(=O)[C@H](CO)NC(=O)[C@H](C(C)C)NC1=O` [Compound 1127] ({CH2CO}-NYDWV[Bip]V[Orn][dL][Dab]LVSCA-NH2; thioether N-14), the IC50 under setting [1] was 15 nM.

`Cc1cccc(C[C@@H]2NC(=O)[C@H](CC(=O)O)NC(=O)[C@H](Cc3ccc(OCC(=O)O)cc3)NC(=O)[C@H](C(C)O)NC(=O)CSC[C@@H](C(=O)N[C@@H](CCN)C(N)=O)NC(=O)[C@H](C(C)O)NC(=O)[C@H](C(C)(C)O)NC(=O)[C@H](CC3CCCCC3)NC(=O)[C@H](CCN)NC(=O)[C@@H](CC(C)C)NC(=O)[C@H](CCCN)NC(=O)[C@H](CCCNC(N)=O)NC(=O)[C@H](Cc3ccc(-c4ccccc4)cc3)NC(=O)[C@H](C(C)C)NC2=O)c1` (stereo partly drawn) [Compound 2632] ({CH2CO}-[Thr(3ξ)]Y(Carboxymethyl)D[Phe(3-Me)]V[Bip][Cit][Orn][dL][Dab][Cha][Val(3-OH)][Thr(3ξ)]C[Dab]-NH2; thioether N-14): the IC50 under setting [1] was 8.8 nM.

Compound `CC(C)C[C@H]1NC(=O)[C@H](CCCN)NC(=O)[C@H](C(C)C)NC(=O)[C@H](Cc2ccc(-c3ccccc3)cc2)NC(=O)[C@H](C(C)C)NC(=O)[C@H](Cc2c[nH]c3ccccc23)NC(=O)[C@H](CC(=O)O)NC(=O)[C@H](Cc2ccc(OCC(=O)O)cc2)NC(=O)[C@H](CN)NC(=O)CSC[C@@H](C(=O)N[C@@H](C)C(=O)N[C@@H](Cc2ccc(OCc3ccccc3)cc2)C(N)=O)NC(=O)[C@H]([C@@H](C)O)NC(=O)[C@H](C(C)C)NC(=O)[C@H](CC2CCCCC2)NC(=O)[C@H](CCN)NC1=O` [Compound 1535] gave an IC50 (Jurkat HPD1_PDL1 IC50, Jurkat-PD-1 cells) of 128 nM.

As for `Cc1cccc(C[C@@H]2NC(=O)[C@H](CC(=O)O)NC(=O)[C@H](Cc3ccc(C(=O)O)cc3)NC(=O)[C@H](Cc3ccncc3)NC(=O)CSC[C@@H](C(=O)N[C@@H](CC(N)=O)C(N)=O)NC(=O)[C@H](C(C)O)NC(=O)[C@H](C(C)C)NC(=O)[C@H](CC3CCCCC3)NC(=O)[C@H](CCN)NC(=O)[C@@H](CC(C)C)NC(=O)[C@H](CCCN)NC(=O)[C@H](Cc3ccc(O)cc3)NC(=O)[C@H](Cc3ccc(-c4ccccc4)cc3)NC(=O)[C@H](C(C)C)NC2=O)c1` (stereo partly drawn) [Compound 2288] ({CH2CO}-[4Pal][Phe(4-COOH)]D[Phe(3-Me)]V[Bip]Y[Orn][dL][Dab][Cha]V[Thr(3ξ)]CN-NH2; thioether N-14), under setting [1], the IC50 came to 14.6 nM.

Take `Cc1cccc(C[C@@H]2NC(=O)[C@H](CC(=O)O)NC(=O)[C@H](Cc3ccc(OCC(=O)O)cc3)NC(=O)[C@H](CN)NC(=O)CSC[C@@H](C(=O)N[C@@H](CCNC(=O)C(C)(C)C)C(N)=O)NC(=O)[C@H]([C@@H](C)O)NC(=O)[C@H](C(C)C)NC(=O)[C@H](CC3CCCCC3)NC(=O)[C@H](CCN)NC(=O)[C@@H](CC(C)C)NC(=O)[C@H](CCN)NC(=O)[C@H](Cc3ccc(OCC(=O)O)cc3)NC(=O)[C@H](Cc3ccc(-c4ccccc4)cc3)NC(=O)[C@H](Cc3ccc(OCC(=O)O)cc3)NC2=O)c1` [Compound 2061] ({CH2CO}-[Dap]Y(Carboxymethyl)D[Phe(3-Me)]Y(Carboxymethyl)[Bip]Y(Carboxymethyl)[Dab][dL][Dab][Cha]VTC[Dab](Piv)-NH2; thioether N-14): under setting [1], the IC50 is 23.6 nM.

For the compound `Cc1cccc(C[C@@H]2NC(=O)[C@H](CC(=O)O)NC(=O)[C@H](Cc3ccc(OCC(=O)O)cc3)NC(=O)[C@H](Cc3ccncc3)NC(=O)CSC[C@@H](C(=O)N[C@@H](CCN)C(N)=O)NC(=O)[C@H](CO)NC(=O)[C@H](C(C)(C)O)NC(=O)[C@H](CC3CCCCC3)NC(=O)[C@H](CCN)NC(=O)[C@@H](CC(C)C)NC(=O)[C@H](CCC(N)=O)NC(=O)[C@H](Cc3ccc(OCC(=O)O)cc3)NC(=O)[C@H](Cc3ccc(-c4ccccc4)cc3)NC(=O)[C@H](Cc3ccc(OCC(=O)O)cc3)NC2=O)c1` [Compound 2642] ({CH2CO}-[4Pal]Y(Carboxymethyl)D[Phe(3-Me)]Y(Carboxymethyl)[Bip]Y(Carboxymethyl)Q[dL][Dab][Cha][Val(3-OH)]SC[Dab]-NH2; thioether N-14), the concentration for half-maximal inhibition (IC50) under setting [1] came out at 3.5 nM.

For the compound `CC(C)C[C@@H]1NC(=O)[C@H](CCN)NC(=O)[C@@H](CC(C)C)NC(=O)[C@H](CCCN)NC(=O)[C@H](C(C)C)NC(=O)[C@H](Cc2ccc(-c3ccccc3)cc2)NC(=O)[C@H](C(C)C)NC(=O)[C@H](Cc2c[nH]c3ccccc23)NC(=O)[C@H](CC(=O)O)NC(=O)[C@H](Cc2ccncc2)NC(=O)[C@H](CN)NC(=O)CSC[C@@H](C(=O)NC(C)C(N)=O)NC(=O)[C@H]([C@@H](C)O)NC(=O)[C@H](C(C)C)NC1=O` (stereo partly drawn) [Compound 1236] ({CH2CO}-[Dap][4Pal]DWV[Bip]V[Orn][dL][Dab]LVTC[ξA]-NH2; thioether N-14), the concentration for half-maximal inhibition (IC50) under setting [1] was determined as 17.4 nM.

In the case of `CC(C)C[C@@H]1NC(=O)[C@H](Cc2c[nH]c3ccccc23)NC(=O)[C@H](CC(=O)O)NC(=O)[C@H](Cc2ccc(O)cc2)NC(=O)[C@H](Cc2ccccc2)NC(=O)CSC[C@@H](C(=O)N[C@@H](C)C(N)=O)NC(=O)[C@H](CO)NC(=O)[C@H](C(C)C)NC(=O)[C@H](CC(C)C)NC(=O)[C@H](CC(N)=O)NC(=O)[C@@H](C)NC(=O)[C@H](CCCN)NC(=O)[C@H](C(C)C)NC(=O)[C@H](Cc2ccc(-c3ccccc3)cc2)NC1=O` [Compound 1108] ({CH2CO}-FYDWL[Bip]V[Orn][dA]NLVSCA-NH2; thioether N-14), under setting [1], the IC50 stood at 42.5 nM.

With `CC(C)C[C@@H]1NC(=O)[C@H](CCN)NC(=O)[C@@H](CC(C)C)NC(=O)[C@H](CC(N)=O)NC(=O)[C@H](C(C)C)NC(=O)[C@H](Cc2ccc(-c3ccccc3)cc2)NC(=O)[C@H](C(C)C)NC(=O)[C@H](Cc2c[nH]c3ccccc23)NC(=O)[C@H](CC(=O)O)NC(=O)[C@H](Cc2ccc(O)cc2)NC(=O)[C@H](CC(N)=O)NC(=O)CSC[C@@H](C(=O)N[C@@H](C)C(N)=O)NC(=O)[C@H]([C@@H](C)O)NC(=O)[C@H](C(C)C)NC1=O` [Compound 1036] ({CH2CO}-NYDWV[Bip]VN[dL][Dab]LVTCA-NH2; thioether N-14), the IC50 under setting [1] turned out to be 26.4 nM.
